Laboratory results as given in patent US9238632B2, “3-cyanoanilinoalkylarylpiperazine derivative and use thereof in preparing drugs” (NHWA Pharma. Corporation, priority 2012, dated 2016).
Counter-ions that a name gives are not always drawn.

What was measured:
[1] = molecular target: T1, 5-HT1A receptor (Rattus norvegicus, UniProt P19327); test: In vitro competitive binding test to 5-HT1A receptor ([3H]-8-OH-DPAT, rat cerebral cortex membranes); conditions: 10 μmol/L compound; hydrochloride salts; rat cerebral cortex membrane; unit (I %); read-out: 5-HT1A affinity [3H]-8-OH-DPAT (inhibition rate of radioligand binding)
T1 construct: The supernatant is discarded and the precipitate (membrane receptor) is stocked; from tissue; host or cells: SD rat cerebral cortex membranes
T1 sequence (P19327 1-422): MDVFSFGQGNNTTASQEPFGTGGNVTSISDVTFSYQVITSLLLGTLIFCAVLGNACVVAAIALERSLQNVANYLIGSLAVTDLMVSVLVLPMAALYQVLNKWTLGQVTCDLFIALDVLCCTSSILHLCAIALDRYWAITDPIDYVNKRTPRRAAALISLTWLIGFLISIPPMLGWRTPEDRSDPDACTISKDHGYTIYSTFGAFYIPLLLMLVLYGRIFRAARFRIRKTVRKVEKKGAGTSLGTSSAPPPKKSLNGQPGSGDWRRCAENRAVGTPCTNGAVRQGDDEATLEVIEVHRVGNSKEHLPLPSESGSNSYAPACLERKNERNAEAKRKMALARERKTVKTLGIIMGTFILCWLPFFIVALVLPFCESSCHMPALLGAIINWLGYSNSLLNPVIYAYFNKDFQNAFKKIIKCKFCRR
Protocol: (§1) Animals: clean grade SD rats, female and male, 250-300 g, purchased from Nanjing QingLongshan animal breeding center.
(§2) Radioligand: [^3H]-8-OH-DPAT, [^3H]-Ketanserin, purchased from PerkinElmer company; 5-HT and Methysergide, purchased from Sigma company.
Preparation of 5-HT1A buffer solution: Tris-HCl buffer solution (0.05M, 1000 ml) is added with certain amount of ascorbic acid, pargyline and CaCl2, to give final concentrations of 0.1%(ascorbic acid), 10 um (pargyline) and 4 mM (CaCl2) separately.
(§3) Preparation of radioligand: 50 μl mother liquor is diluted to 5 ml with anhydrous ethanol, and stocked for use.
(§4) Preparation of non-labeling ligand: appropriate amounts of 5-HT and Methysergide are dissolved in ultrapure water to give solutions with final concentrations of 2*10^−5M respectively.
(§5) Preparation of solutions of various test drugs: appropriate amount of each drug is first diluted to 1 ml with ultrapure water as stock solution. When needed, 10 μl of the stock solution is diluted to 1 ml to reach a level of 10^−5M.
(§6) Rats are decapitated to get the brains. The target tissues (left and right cerebral cortex) are separated on ice, added with 10-fold volume (V/W) of ice-cold buffer, and homogenized with tissue Homogenizer for several seconds 3 times to form tissue homogenate. The tissue homogenate is centrifuged with low temperature superb centrifuge (12000 r/min) 3 times, with each for 20 minutes. The supernatant is discarded and the precipitate (membrane receptor) is stocked in −80° C. ultralow temperature freezer.
(§7) The membrane receptor is added with certain volume of ice-cold buffer and homogenized to make membrane receptor solutions at certain concentrations.
(§8) Various reaction solutions are added in the following sequences and ratios:
(§9) Total binding tube: 100 μl membrane receptor+100 μl buffer+10 μl radioligand
(§10) Non-specific tube: 100 μl membrane receptor+100 μl non-labeling ligand+10 μl radioligand
(§11) Test compound tube: 100 μl membrane receptor+100 μl drug solution+10 μl radioligand
(§12) Above tubes are put in 37° C. water bath immediately after finishing adding radioligand into each of them and then incubated for 25 min. After 25 min, the tubes are put in ice water to quench the reaction. Each tube is poured into suction filtration device to filter, and the filter membrane is washed with 5-10 ml ice-cold buffer twice. The filter membrane is dried in 85° C. oven, and then put into test tubes, and added with certain amount of scintillation liquid to soak overnight. Radioactivity is determined using liquid scintillation counter.
(§13) Each compound is tested in duplicate, and the tests are carried out independently twice.

[2] = molecular target: T2, 5-HT2A receptor (Rattus norvegicus, UniProt P14842); test: In vitro competitive binding test to 5-HT2A receptor ([3H]-Ketanserin, rat cerebral cortex membranes); conditions: 10 μmol/L compound; hydrochloride salts; rat cerebral cortex membrane; unit (I %); read-out: 5-HT2A affinity [3H]-Ketanserin (inhibition rate of radioligand binding)
T2 construct: The supernatant is discarded and the precipitate (membrane receptor) is stocked; from tissue; host or cells: SD rat cerebral cortex membranes
Protocol: as §1, §2
Preparation of 5-HT2A buffer solution: Tris (6.05 g) is dissolved in ultrapure water (1000 ml). PH is adjusted to 7.4 with HCl. Tris-HCl buffer solution (0.05M) is used.
as §3, §4, §5, §6, §7, §8, §9, §10, §11, §12, §13

[3] = molecular target: hSERT (Homo sapiens, UniProt P31645); test: In vitro inhibition of serotonin reuptake ([3H]-5-HT) in cells stably expressing hSERT; conditions: for inhibition at 10 µM: read-out: Inhibition rates of SERT reuptake [3H]-5-HT
Protocol: Positive control compound: fluoxetine.
Sample treatment: about 1 mg of compound is weighted and added with relative amount of DMSO to prepare 10^−2M stock solution. Before use, the stock solution is diluted with HBSS buffer to relative concentrations. Each sample is dissolved in DMSO completely. The dilution is clear and without obvious cloudy and formation of precipitate after adding with buffer.
(1) Cells which can stably express hSERT are seeded into 24-well plates respectively.
(2) Experiments are started when the cell confluence reaches 80-90%.
(3) Liquids in the plates are discarded, the plates are washed with PBS twice at room temperature.
(5) Plates are incubated at 37° C. for 10 min after slight oscillation.
(6) Then 20 μl radioisotope is added (cpm: about 20000).
(7) Plates are incubated at 37° C. for 5 min after slight oscillation.
(8) Liquids in the plates are discarded, the plates are washed with ice-cold PBS twice, all the liquids in the plates are removed away.
(9) NaOH (2M, 100 μl) is added into each well to lyse the cells. All the lysates are combined and put on GF/C glass fiber filter paper.
(10) The filter papers are dried and put in 0.5 ml centrifuge tube, 500 μl lipid soluble scintillation liquid are added. Radioactivity is determined by MicroBeta liquid scintillation counter. Each concentration is tested intriplicate, and tests are carried out independently twice.
Test concentration is 10 μmol/L. The positive drug provided is set as control (10 μmol/L) in each experiment. The experimental processes are the same as the above process.

[4] = test system: mice tail suspension test; test: Mice tail suspension test (immobility time); format: in vivo, KM mice; conditions: 40 mg/kg intragastric, 1 h post dose, last 4 min of 6 min, n=10, mean ± SD
Protocol: Control drug: duloxetine hydrochloride, fluoxetine hydrochloride
A few days before the experiment, mice with qualified body weight are selected and divided into groups. The experiments are carried out in 2 days. In D1, mice are put on bar of tail suspension instrument for 6 min, the immobility time of the last 4 min are recorded. […] Blank control group, positive control group and each test compound group are set.
The mean values of immobility time for each group are calculated, the results are expressed as “mean±standard deviation”.

[5] = test system: rat formalin induced pain model; test: Rat formalin induced pain model (leg-raising times); format: in vivo, SD rats; conditions: 100 mg/kg intragastric, formalin 1 h later; Mean ± SD, n=10
From the text: Rat formalin induced pain model is used to test in vivo analgesic effect of hydrochloride of compound III-10.
Rat formalin induced pain model is established by Dubuisson and Dennis in 1977. It can simulate some characteristics of human pains after damages, and its persistent tension pain is similar to common clinical chronic pains. Its experimental results have excellent repeatability, and it is considered to be universally accepted pain model which is more reliable than short-term mechanical or thermal stimulation models. It has been generally used in investigation and determination of pain mechanism, pain physiology and pharmacology, screening of the analgesic effects of drugs and evaluation of analgesic drugs.
Test compounds are prepared to relevant doses with 0.5% CMC-Na before use.
Formaldehyde solution: batch number HN20041109, HuaDong reagent industrial company. In experiment, it is diluted to 5% formaldehyde solution with 0.9% sodium chloride injection.
90 SD rats of weight (240-350 g), half female and half male, are fed for I week to adapt the environment, with 5 in each cage during feeding, the rats are fed under standard condition during experiments with free access to water and food.
90 SD rats of weight 240-350 g are randomly divided into 9 groups which are negative control group, model group, gabapentin group, high, median and low dosage group of each compound respectively, with 10 rats in each group, half female and half male. Relevant test compounds are given by intragastric administration, and 5% formalin (50 ul) is subcutaneously injected at the left rear foot in 1 h to model, formation of pichu indicates a successful modeling. 0.5% (weight percentage) CMC-Na is given by intragastric administration in negative control group, and normal saline (50 ul) is subcutaneously injected at the bottom of right rear foot in 1 h. After modeling, the leg-raising times in 1-2 minutes and 5-6 minutes are observed. The time period 10-60 minutes are divided into 5 minutes intervals, and the leg-raising times of the first minute of each interval (10-11, 15-16, 20-21, 25-26, 30-31, 35-36, 40-41, 45-46, 50-51, 55-56, 60-61) are observed.
Measuring index is expressed as mean±standard deviation (Mean±SD), comparison is analyzed with One-way ANOVA.

[6] = Acute toxicity study, single drench to mice (LD50, Bliss method); conditions: mouse, in vivo, oral, hydrochloride
From the text: Bliss method is used for statistics.

[7] = test system: Salmonella typhimurium histidine auxotrophic mutants TA97, TA98, TA100 and TA102; test: Bacterial reverse mutation test (Ames test); conditions: −S9 and +S9, all dosages
Protocol: Strains: Salmonella typhimurium histidine auxotrophic mutants TA97, TA98, TA100 and TA102.
Results: the experiments include two parts of −S9 and +S9. In the test system without S9, TA98 5000 μg/dish has antibacterial activity, and in the test system with S9, TA97 5000 μg/dish has antibacterial activity. Other dosages have no antibacterial activity to any of the strains, and the growth background is excellent. […] Ames test is negative.

T2 sequence (P14842 whole entry): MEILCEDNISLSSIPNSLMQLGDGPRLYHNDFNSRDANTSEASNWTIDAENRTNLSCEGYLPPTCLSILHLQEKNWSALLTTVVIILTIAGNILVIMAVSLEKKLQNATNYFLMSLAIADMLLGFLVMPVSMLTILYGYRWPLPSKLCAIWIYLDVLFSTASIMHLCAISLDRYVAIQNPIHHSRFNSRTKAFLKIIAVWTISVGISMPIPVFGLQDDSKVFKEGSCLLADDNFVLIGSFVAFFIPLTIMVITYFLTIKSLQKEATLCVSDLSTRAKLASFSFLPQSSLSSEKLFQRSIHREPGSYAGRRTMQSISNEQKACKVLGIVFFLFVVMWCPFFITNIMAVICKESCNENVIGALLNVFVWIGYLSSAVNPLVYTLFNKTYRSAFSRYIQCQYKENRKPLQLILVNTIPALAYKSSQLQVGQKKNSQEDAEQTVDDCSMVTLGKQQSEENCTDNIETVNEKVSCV
hSERT, sequence (P31645 whole entry): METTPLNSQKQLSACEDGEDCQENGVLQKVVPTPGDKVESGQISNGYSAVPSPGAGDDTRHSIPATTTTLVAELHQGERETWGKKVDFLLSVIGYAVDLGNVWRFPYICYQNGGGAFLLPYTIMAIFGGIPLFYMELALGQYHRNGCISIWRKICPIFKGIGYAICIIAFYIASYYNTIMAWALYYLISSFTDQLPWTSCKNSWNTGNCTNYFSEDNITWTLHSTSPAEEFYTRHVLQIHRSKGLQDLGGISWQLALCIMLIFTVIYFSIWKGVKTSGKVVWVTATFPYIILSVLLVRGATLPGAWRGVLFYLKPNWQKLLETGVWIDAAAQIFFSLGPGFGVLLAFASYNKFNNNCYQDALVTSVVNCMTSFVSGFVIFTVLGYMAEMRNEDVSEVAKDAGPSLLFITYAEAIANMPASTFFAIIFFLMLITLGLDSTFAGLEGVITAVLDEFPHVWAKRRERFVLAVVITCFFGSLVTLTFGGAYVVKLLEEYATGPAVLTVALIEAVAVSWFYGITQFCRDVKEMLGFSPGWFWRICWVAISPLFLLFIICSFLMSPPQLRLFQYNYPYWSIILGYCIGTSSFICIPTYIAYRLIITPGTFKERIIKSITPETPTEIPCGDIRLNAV

Row | Structure (SMILES) | inhibition at 10 µM [1] | inhibition at 10 µM [2] | inhibition at 10 µM [3] | also measured
1 | COc1ccccc1N1CCN(CCN(C)c2cccc(C#N)c2)CC1 [III-1, 3-((2-(4-(2-methoxyphenyl)piperazin-1-yl)ethyl)methylamino)benzonitrile] | 154% | 98.9% | 97.3% | –
2 | CN(CCN1CCN(c2cccc(Cl)c2Cl)CC1)c1cccc(C#N)c1 [III-4, 3-((2-(4-(2,3-dichlorophenyl)piperazin-1-yl)ethyl)methylamino)benzonitrile] | 126% | 104% | 93.4% | –
3 | Cc1cccc(N2CCN(CCCN(C)c3cccc(C#N)c3)CC2)c1C [III-11, 3-((3-(4-(2,3-dimethylphenyl)piperazin-1-yl)propyl)methylamino)benzonitrile] | 102% | 145% | 96.6% | –
4 | CN(CCCN1CCN(c2cccc(Cl)c2Cl)CC1)c1cccc(C#N)c1 [III-13, 3-((3-(4-(2,3-dichlorophenyl)piperazin-1-yl)propyl)methylamino)benzonitrile] | 119% | 149% | 86.9% | –
5 | CCN(CCCN1CCN(c2ccccc2OC)CC1)c1cccc(C#N)c1 [III-14, 3-((3-(4-(2-methoxyphenyl)piperazin-1-yl)propyl)ethylamino)benzonitrile] | 112% | 135% | 98.2% | –
6 | COc1ccccc1N1CCN(CCCN(C)c2cccc(C#N)c2)CC1 [III-9, 3-((3-(4-(2-methoxyphenyl)piperazin-1-yl)propyl)methylamino)benzonitrile] | 125% | 154% | 104% | –
7 | CNCCC(Oc1ccc(C(F)(F)F)cc1)c1ccccc1 (stereo not shown) [fluoxetine] | – | – | – | Immobility time [4]: 69.9 ± 27.4 S; Immobility time ([4]; listed as fluoxetine hydrochloride): significantly decreased immobility time
8 | COc1c(Cl)ncnc1N1CCN(CCN(C)c2cccc(C#N)c2)CC1 [III-6, 3-((2-(4-(6-chloro-5-methoxylpyrimidin-1-yl)piperazin-1-yl)ethyl)methylamino)benzonitrile] | 91.6% | 84.5% | 98.3% | –
9 | NCC1(CC(=O)O)CCCCC1 [Gabapentin, gabapentin, reference compound] | – | – | – | phase I times (leg-raising times) [5]: 11.60 ± 6.75 time; phase II times (leg-raising times) [5]: 74.7 ± 39.45 time
10 | COc1cncnc1N1CCN(CCN(C)c2cccc(C#N)c2)CC1 [III-7] | 83.2% | 101% | 81.7% | –
11 | CN(CCN1CCN(c2cccc(Cl)c2)CC1)c1cccc(C#N)c1 [III-3, 3-((2-(4-(3-chlorophenyl)piperazin-1-yl)ethyl)methylamino)benzonitrile] | 155% | 107% | 98.3% | –
12 | COc1cncnc1N1CCN(CCCN(C)c2cccc(C#N)c2)CC1 [III-12] | 114% | 132% | 94.4% | –
13 | CN(CCN1CCN(c2cccc(C(F)(F)F)c2)CC1)c1cccc(C#N)c1 [III-2, 3-(methyl(2-(4-(3-trifluoromethylphenyl)piperazin-1-yl)ethyl)amino)benzonitrile] | 119% | 131% | 97.8% | –
14 | Cc1cccc(N2CCN(CCN(C)c3cccc(C#N)c3)CC2)c1C [III-5, 3-((2-(4-(2,3-dimethylphenyl)piperazin-1-yl)ethyl)methylamino)benzonitrile] | 121% | 134% | 99.7% | –
15 | CNCC[C@H](Oc1cccc2ccccc12)c1cccs1 [dutoxetine, duloxetine hydrochloride] | – | – | – | Immobility time ([4]; hydrochloride): 28.2 ± 27.3 S; Immobility time ([4]; listed as dutoxetine hydrochloride, hydrochloride): significantly decreased immobility time
16 | CN(CCCN1CCN(c2cccc(C(F)(F)F)c2)CC1)c1cccc(C#N)c1 [III-8, 3-(methyl(3-(4-(3-trifluoromethylphenyl)piperazin-1-yl)propyl)amino)benzonitrile] | 108% | 111% | 98.3% | LD50 [6]: 1800 mg/kg; Ames test (colony reverse mutations) [7]: negative; IC50 [3]: 246 ± 94 nM; inhibition effect to 5-HT reuptake compared with fluoxetine [3]: comparable to that of fluoxetine
